Measurements from patent US20120230951A1 (priority 2011, published 2012).
Where a name gives a salt, the structure may show the parent alone.

System: GT-1a pRLuc H771b 75 S/I subgenomic replicon cell line
Assay: HCV GT-1a replicon luciferase reporter assay
Format: cell-based
Settings: Hepatitis C virus, GT1A, 72 h, read-out: GT-1a (IC50) (nM)
Description: Determination of compounds HCV GT1b inhibitory replicon activity using the replicon luciferase reporter assay
The 2209-23 cell line was developed at Roche by stable transfection of the hepatoma cell line Huh-7 with a GT-1b Con1 subgenomic bicistronic replicon as previously described. Subgenomic replicon cell line was established in cured Huh7 cells, obtained from R. Bartenschlager (J. Virol. 2003 March; 77 (5):3007-19) The GT-1a H77 subgenomic replicon vector pRLuc H771b 75 S/I, was created by replacing the non structural region of the GT-1b Con1 subgenomic replicon by the one of the H77 strain, except for the first 75 amino acids of the NS3 protein that are from GT-1b Con1 strain. (J. Virol. 2001 77:5352-59) The GT-1a pRLuc H771b 75 S/I subgenomic replicon cell line was established in cured Huh7 cells, obtained from R. Bartenschlager. (J. Virol. 2003 March; 77 (5):3007-19)
All the subgenomic replicon cell lines were cultured in Dulbecco's Modified Eagle Medium (DMEM-Glutamax™-I; Invitrogen Cat #10569-010). The medium was supplemented with 10% Fetal Bovine Serum (Invitrogen Cat #10082-147), 1% penicillin/streptomycin (Mediatech Cat #30-002-CI) and 500 μg/ml of G418 (Mediatech Cat #30-234-CI). Cells were maintained at 37° C. in a humidified 5% CO2 atmosphere.
2209-23 cells were plated at a cell density of 5000 cells per well in 96 well plates (Becton Dickinson, Cat #35 3296). Cells were plated in 90 μl of Dulbecco's Modified Eagle Medium (DMEM-Glutamax™-I), (Invitrogen Cat #10569-010) medium was supplemented with 5% Fetal Bovine Serum (Invitrogen Cat #10082-147), 1% penicillin/streptomycin (Mediatech Cat #30-002-CI). The pRluc H771b 75 S/I cells were plated in 96-well plate at 3000 cells/well in DMEM-Glutamax™-I containing 5% FBS and 1% penicillin/streptomycin in 90 μl final volume. Cells were allowed to equilibrate for 24 hours at 37° C. and 5% CO2 at which time compounds were added. Compounds (or medium as a control) were added 24 hours post-plating in 3 fold dilutions at a final DMSO concentration of 1% in 10 ul volume. Renilla luciferase reporter signal was read 72 hours after addition of compounds using the Renilla Luciferase Assay System (Promega, cat #E2820). EC50 values were defined as the compound concentration at which a 50% reduction in the levels of renilla luciferase reporter was observed as compared to control samples in the absence of compound and was determined by non-linear fitting of compound dose-response data. The EC50 was approximated if maximum percentage inhibition was less than 90% and more than 70%.

First: COC(=O)N[C@H]1CCc2cccc3c2N(C1=O)[C@H](c1ncc(-c2ccc4cc(-c5ccc(-c6cnc([C@@H]7CCCN7C(=O)[C@@H](NC(=O)OC)C(C)C)[nH]6)cn5)ccc4c2)[nH]1)C3 [Compound I-24, ((2S,5S)-2-{4-[6-(5-{2-[(S)-1-((S)-2-Methoxycarbonylamino-3-methyl-butyryl)-pyrrolidin-2-yl]-3H-imidazol-4-yl}-pyridin-2-yl)-naphthalen-2-yl]-1H-imidazol-2-yl}-4-oxo-1,2,4,5,6,7-hexahydro-azepino[3,2,1-hi]indol-5-yl)-carbamic acid methyl ester di-trifluoroacetic acid salt]
Second: COC(=O)N[C@H]1CCc2cccc3c2N(C1=O)[C@H](c1ncc(-c2ccc(-c4ccc(-c5cnc([C@@H]6CCCN6C(=O)[C@@H](NC(=O)OC)C(C)C)[nH]5)cn4)cc2)[nH]1)C3 [Compound I-34, ((2S,5S)-2-{5-[4-(5-{2-[(S)-1-((S)-2-Methoxycarbonylamino-3-methyl-butyryl)-pyrrolidin-2-yl]-3H-imidazol-4-yl}-pyridin-2-yl)-phenyl]-1H-imidazol-2-yl}-4-oxo-1,2,4,5,6,7-hexahydro-azepino[3,2,1-hi]indol-5-yl)-carbamic acid methyl ester]
The IC50 of the first is 75-fold lower: 1.16 nM for the first, 86.7 nM for the second.

First: COC(=O)N[C@H]1CCc2cc(C(N)=O)cc3c2N(C1=O)[C@H](c1ncc(-c2ccc(-c4ccc(-c5cnc([C@H]6CCCN6C(=O)[C@H](NC(=O)OC)C(C)C)[nH]5)cc4)cc2)[nH]1)C3 [Compound I-27, {(2S,5S)-9-Carbamoyl-2-[5-(4′-{2-[(R)-1-((R)-2-methoxycarbonylamino-3-methyl-butyryl)-pyrrolidin-2-yl]-3H-imidazol-4-yl}-biphenyl-4-yl)-1H-imidazol-2-yl]-4-oxo-1,2,4,5,6,7-hexahydro-azepino[3,2,1-hi]indol-5-yl}-carbamic acid methyl ester]
Second: COC(=O)N[C@H]1CCc2cccc3c2N(C1=O)[C@H](c1ncc(-c2ccc(-c4ccc(-c5[nH]c([C@@H]6CCCN6C(=O)[C@@H](NC(=O)OC)C(C)C)nc5Cl)cc4)cc2)[nH]1)C3 [Compound I-30, {(2S,5S)-2-[5-(4′-{5-Chloro-2-[(S)-1-((S)-2-methoxycarbonylamino-3-methyl-butyryl)-pyrrolidin-2-yl]-3H-imidazol-4yl}-biphenyl-4-yl)-1H-imidazol-2-yl]-4-oxo-1,2,4,5,6,7-hexahydro-azepino[3,2,1-hi]indol-5-yl}-carbamic acid methyl ester]
The IC50 of the first is 5.1-fold higher: 5.08 nM for the first, 1 nM for the second.

Compared with `COC(=O)N[C@H]1CCc2cccc3c2N(C1=O)[C@H](c1ncc(-c2ccc(-c4ccc(-c5[nH]c([C@@H]6CC(F)(F)CN6C(=O)[C@@H](NC(=O)OC)C(C)C)nc5Cl)cc4)cc2)[nH]1)C3` [Compound I-32, {(2S,5S)-2-[5-(4′-{5-Chloro-2-[(S)-4,4-difluoro-1-((S)-2-methoxycarbonylamino-3-methyl-butyryl)-pyrrolidin-2-yl]-3H-imidazol-4yl}-biphenyl-4-yl)-1H-imidazol-2-yl]-4-oxo-1,2,4,5,6,7-hexahydro-azepino[3,2,1-hi]indol-5-yl}-carbamic acid methyl ester], `COC(=O)N[C@H]1CCc2cccc3c2N(C1=O)[C@H](c1ncc(-c2ccc(-c4ccc(-c5cnc([C@@H]6C[C@H](O)CN6C(=O)[C@@H](NC(=O)OC)C(C)C)[nH]5)cc4)cc2)[nH]1)C3` [Compound I-33, {(2S,5S)-2-[5-(4′-{2-[(2S,4S)-4-Hydroxy-1-((S)-2-methoxycarbonylamino-3-methyl-butyryl)-pyrrolidin-2-yl]-3H-imidazol-4-yl}-biphenyl-4-yl)-1H-imidazol-2-yl]-4-oxo-1,2,4,5,6,7-hexahydro-azepino[3,2,1-hi]indol-5-yl}-carbamic acid methyl ester] is 8-fold higher in IC50: 5.78 nM for the first, 46.1 nM for the second. The first is the more potent here.
